Data taken from patent US6436917B1, “Non-estrogenic estradiol derivative compounds with anti-oxidative activity” (Jenapharm GmbH & Co. KG, priority 1997, dated 2002).

Experiments:
[1] = tested on: Synaptosomal membrane fractions (rat); settings: for IC50: read-out: LIPID PEROXIDATION INHIBITION (IC50 μMol/l), synaptosomal membrane fractions (rat), 30 min at 37° C.; for antioxidative action in lipid peroxidation (in words): compared with 17α-estradiol and 17β-estradiol
[2] = background statement; cited from earlier work
[3] = tested on: vaginal epithelium of ovariectomized rats; assay: Allen-Doisy test, estrogenicity in vivo in ovariectomized rats (vaginal smears); parameters: species or system rat; settings: one-time subcutaneous administration d1, ovariectomized rats
Experimental: Estrogens lead to characteristic changes in vaginal epithelium in ovariectomized rodents. The upper cells become heavily cornified and a strong proliferation occurs. These changes in cell formation were determined by vaginal smears. The occurrence of cornified anuclear epithelial cells is an expression of estrogen-specific activity (Allen-Doisy Test).
Subcutaneous Testing for Estrogen Activity
Estrogens lead to characteristic changes in vaginal epithelium with ovariectomized rodents. Strong proliferation and cornification of the upper cell layer occurs. These changes are detectable in cells from vaginal smears. The occurrence of cornified anuclear epithelial cells is an expression of an estrogen-specific activity—i.e. the Allen-Doisy Test—according to R. J. Dorfman, (Hrsg.), Methods in Hormone Research, p. 72 ff, Academic Press, New York, 1969.
White Wistar Rats (origin: Shoe: WIST=Mol : WIST, n=48) that weighed from 180 to 200 g were supplied, divided randomly into trial groups (n=3 to 5 animals/group), habituated in supporting conditions for about one week and subsequently ovariectomized under anesthesia with ursotami.
The test substances for subcutaneous and oral administration were formulated in benzyl benzoate/castor oil (1+4) or in polyoxyethylene(50-stearate) by Myrj® (85 mg polyoxyethylene(50-stearate) in 100 ml 0.9% w/v sodium chloride solution).
The administered volume amounted to 0.2 ml/animal.
Rats with a weight of about 200 g were ovariectomized under anesthesia with ursotami and about 2 weeks after that the animal was tested in the presence of a castrated vaginal cell formation (dioestrus). After that 0.2 ml per animal of the test substance was administered once subcutaneously. Vaginal smears were taken 24, 48, 54 and 72 hours after the one-time administration of the test substance and subsequent oestrus stages were evaluated(dioestrus=1; proestrus=2; oestrus=3; metoestrus=4). The experiment was ended after four days according to the standard ALLEN-DOISY test. The animals were sacrificed under anesthesia in ether by dislocation of the neck vertebral column, the uterus was prepared and its moist weight (without secretion) was measured. The suprarenal capsules were also prepared and weighed.
The results of the colpotropic test—the occurrences of oestral vaginal cell forms as reagents per doses group and the uteropic activity(uterus weight) were measured. The average of the uterus weight of the test groups was compared with the average of the vehicular groups and, if necessary, the significance of the differences was determined by a t-test according to STUDENT. The moist weight of the suprarenal capsules of all groups was also determined.

[4] = Fe(II) oxidation assay (inhibition of Fe(II)-autooxidation); format: biochemical; settings: for FE(II)-AUTOXIDATION Inhibition, %: synaptosomal membrane/lipid fractions, 50 μM Fe(II) sulfate, pH 7.4, 10 min at 37° C., test concentration not given
Text: The testing of the substances for Fe(II)-autooxidation inhibition activity occurs according to B. Ruiz-Larrea, et al, “Antioxidant effects of estradiol and 2-hydroxyestradiol on iron-induced lipid peroxidation of rat liver microsomes”, Steroids 39 (1994), pp. 383-388 and B. Ruiz-Larrea, et al, Effects of estrogens on the redox chemistry of iron: “A possible mechanism of the antioxidant action of estrogens”, Steroids 60 (1995), pp. 780-783.
All autooxidation experiments involving the Fe(II) ions were performed in aqueous solutions, which contain synaptosomal membrane/lipid fractions. A 1.0 ml biological sample containing 50 μM Fe(II) sulfate, 45 mM tris-HCl buffer (pH=7.4) and 0.08 mg of synaptosomal proteins were incubated with test substances dissolved in ethanol (10% v/v) for 10 min in a water bath at 37° C., subsequently stopped by addition of 50 μL of a 0.32 M 1,10-phenanthrolene solution and the extinction of Fe(II) phenanthroline complexes at 510 nm was measured.
All other biochemicals are of the highest analytical grade of purity. The test substances are preferably made in the form of a 20 millimolar stock solution in 95% ethanol and diluted immediately prior to the start of the experiment.

[5] = Fe(III) reduction assay (stimulation of Fe(III) reduction); format: biochemical; settings: 25 μM Fe(III) chloride, tris-HCl pH 7.4; test concentration not given
Text: The testing of the substances for their ability to stimulate Fe(III) reduction occurs according to B. Ruiz Larrea, et al, “Antioxidant effects of estradiol and 2-hydroxyestradiol on iron-induced lipid peroxidation of rat liver microsomes”, Steroids 39 (1994), p. 383-388 and B. Ruiz-Larrea, et al, Effects of estrogens on the redox chemistry of iron: A possible mechanism of the antioxidant action of estrogens”, Steroids 60 (1995), pp. 780 to 783.
The biological sample contained the following components: 25 μM Fe(III) chloride in 150 mM tris-HCl (pH=7.4), 15 mM 1,10-phenanthrolene and the substance to be tested, dissolved in an ethanol vehicle. The formation of the Fe(II) phenanthroline complex is registered spectrophotometrically at 510 nm.

estrogen receptor [6] = molecular target: T1, estrogen receptor (Homo sapiens, UniProt P03372); assay: Relative binding affinity to estrogen receptor sites; settings: relative to 17β-estradiol = 100
T1 sequence (P03372 1-595): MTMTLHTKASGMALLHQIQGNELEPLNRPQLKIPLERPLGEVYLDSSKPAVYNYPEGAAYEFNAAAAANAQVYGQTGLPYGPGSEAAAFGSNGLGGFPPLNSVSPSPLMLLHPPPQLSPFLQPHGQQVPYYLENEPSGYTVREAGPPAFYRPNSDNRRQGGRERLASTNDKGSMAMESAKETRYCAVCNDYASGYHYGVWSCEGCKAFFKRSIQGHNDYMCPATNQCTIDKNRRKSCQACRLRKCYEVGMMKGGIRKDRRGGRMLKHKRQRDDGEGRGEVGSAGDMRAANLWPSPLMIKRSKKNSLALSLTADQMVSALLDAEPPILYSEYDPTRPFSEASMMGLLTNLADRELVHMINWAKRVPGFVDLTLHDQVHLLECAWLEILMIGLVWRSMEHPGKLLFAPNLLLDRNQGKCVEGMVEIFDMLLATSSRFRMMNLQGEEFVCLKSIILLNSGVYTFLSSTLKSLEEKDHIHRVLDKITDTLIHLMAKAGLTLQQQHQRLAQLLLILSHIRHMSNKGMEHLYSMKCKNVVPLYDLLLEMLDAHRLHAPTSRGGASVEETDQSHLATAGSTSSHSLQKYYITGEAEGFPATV

estrogen receptor [7] = molecular target: T1, estrogen receptor; settings: background; natural 17β-estradiol = 100%; cited from earlier work

Cc1cc(C(C)(C)C)c(O)c(C(C)(C)C)c1 [butyrohydroxytoluene (BHT), butyrohydroxytoluene]
IC50 [1]: 0.95 µmol/L

COc1ccc2c(c1)CC[C@@H]1[C@@H]2CC[C@@]2(C)[C@H]1CC[C@@]2(O)Cc1ccc(N(C)C)cc1 [J 848, 3-methoxy-17α-4′-dimethylamino-phenylmethyl-estra-1,3,5(10)-trien-17-ol]
estrogen activity in vivo [2]: high estrogen activity
Allen-Doisy Test, flaking, d1-d4 vaginal scale stage 3 (reagent/group) ([3]; 30 μg/animal): 0/5
Allen-Doisy Test, flaking, d1-d4 vaginal scale stage 3 (reagent/group) ([3]; 300 μg/animal): 2/5

C[C@]12CC[C@@H]3c4ccc(O)cc4CC[C@H]3[C@@H]1CC[C@@H]2O [17β-estradiol]
Allen-Doisy Test, flaking, d1-d4 vaginal scale stage 3 (reagent/group) ([3]; 0.03 μg/animal): 1/5
Allen-Doisy Test, flaking, d1-d4 vaginal scale stage 3 (reagent/group) ([3]; 0.1 μg/animal): 5/5
effect on the Fe(II)-autooxidation process (in words) [4]: do not or do not substantial change
FE(II)-AUTOXIDATION Inhibition, % [4]: ≦1%
IC50 [1]: 12.4 µmol/L
FE(III)-REDUCTION Stimulation, % [5]: ≦1%

Cc1ccc(O)c2c1CC[C@@H]1[C@@H]2CC[C@]2(C)[C@@H](O)CC[C@@H]12 [J 1178, 4-methyl-estra-1,3,5(10)-trien-1,17β-diol]
Allen-Doisy Test, flaking, d1-d4 vaginal scale stage 3 (reagent/group) ([3]; 1000 μg/animal): 0/5
Allen-Doisy Test, flaking, d1-d4 vaginal scale stage 3 (reagent/group) ([3]; 10000 μg/animal): 1/5
relative binding affinity (% binding to estrogen receptor) (estrogen receptor [6]): 0.04%
effect on the Fe(II)-autooxidation process (in words) [4]: have the ability to inhibit the Fe(II)-autooxidation process
FE(II)-AUTOXIDATION Inhibition, % [4]: 22.26%
antioxidative action in lipid peroxidation (in words) [1]: considerably stronger antioxidative action
IC50 [1]: 1.7 µmol/L
FE(III)-REDUCTION Stimulation, % [5]: 19.23%

CN(C)c1ccc(CC2(O)CCC3C4CCc5cc(O)ccc5C4=CCC32C)cc1 (stereo not drawn) [J 844, 17α-4′-dimethylamino-phenylmethyl-estra-1,3,5(10),9(11)-tetraen-3,17-diol]
binding affinity to estrogen receptor sites (estrogen receptor [7]): less than 1%
relative binding affinity (% binding to estrogen receptor) (estrogen receptor [6]): 0.7%

Cc1ccc(O)c2c1CC[C@@H]1[C@@H]2CC[C@]2(C)[C@H](O)CC[C@@H]12 [J 1179, 4-methyl-estra-1,3,5(10)-trien-1,17α-diol]
Allen-Doisy Test, flaking, d1-d4 vaginal scale stage 3 (reagent/group) ([3]; 10000 μg/animal): 0/5
relative binding affinity (% binding to estrogen receptor) (estrogen receptor [6]): <0.03%
effect on the Fe(II)-autooxidation process (in words) [4]: have the ability to inhibit the Fe(II)-autooxidation process
FE(II)-AUTOXIDATION Inhibition, % [4]: 26.07%
antioxidative action in lipid peroxidation (in words) [1]: considerably stronger antioxidative action
IC50 [1]: 1.94 µmol/L
FE(III)-REDUCTION Stimulation, % [5]: 21.41%

C[C@]12CC[C@@H]3c4ccc(O)cc4CC[C@H]3[C@@H]1CC[C@H]2O [17α-estradiol]
Allen-Doisy Test, flaking, d1-d4 vaginal scale stage 3 (reagent/group) ([3]; 10 μg/animal): 0/6
Allen-Doisy Test, flaking, d1-d4 vaginal scale stage 3 (reagent/group) ([3]; 100 μg/animal): 6/6
effect on the Fe(II)-autooxidation process (in words) [4]: do not or do not substantial change
FE(II)-AUTOXIDATION Inhibition, % [4]: ≦1%
IC50 [1]: 8.9 µmol/L
FE(III)-REDUCTION Stimulation, % [5]: ≦1%

C[C@]12CC[C@H]3c4ccc(O)cc4CC[C@@H]3[C@H]1CC[C@H]2O [J 855, 8α, 9β, 14β-estra-1,3,5(10)-trien-3,17α-diol]
Allen-Doisy Test, flaking, d1-d4 vaginal scale stage 3 (reagent/group) ([3]; 1000 μg/animal): 5/5
Allen-Doisy Test, flaking, d1-d4 vaginal scale stage 3 (reagent/group) ([3]; 10000 μg/animal): 5/5

Cc1c(C)c2c(c(C)c1O)CC[C@@](C)(CCC[C@H](C)CCC[C@H](C)CCCC(C)C)O2 [α-tocopherol (Vitamin E), α-tocopherol]
IC50 [1]: 117 µmol/L

C[C@]12CC[C@@H]3c4ccc(O)c(O)c4CC[C@H]3[C@@H]1CC[C@H]2O [4-hydroxy-17α-estradiol]
FE(II)-AUTOXIDATION Inhibition, % [4]: 59.51%
FE(III)-REDUCTION Stimulation, % [5]: 32.71%

C[C@]12CC[C@@H]3c4cc(O)c(O)cc4CC[C@H]3[C@@H]1CC[C@@H]2O [2-hydroxy-17β-estradiol]
FE(II)-AUTOXIDATION Inhibition, % [4]: 64.20%
FE(III)-REDUCTION Stimulation, % [5]: 35.26%
